Results: patent publication US20120142768A1 (BAXTER INTERNATIONAL INC., priority 2010, published 2012)
Where a name gives a salt, the structure may show the parent alone. Read-outs that look alike come from different tables or passages of the source. One block for each compound: values may come before it.

Key:
[1] = Phase solubility of amiodarone with substituted cyclodextrins; settings: 5% dextrose, 0.9 mM citrate buffer, pH 3.8, room temperature (FIG. 4)
Text: The actual percent of drug that is complexed will vary according to the complexation equilibrium constant characterizing the complexation of a specific cyclodextrin derivative to a specific drug and to the concentrations of the cyclodextrin derivative and drug available for complexation.
Phase solubility studies can also generate information as to the required amounts of a cyclodextrin needed to solubilize a drug under different conditions such as temperature, cyclodextrin type, or solution composition.

[2] = cited from earlier work
[3] = Ravin et al. 1975, cited from earlier work

SBE7-β-CD required for 1.8 mg/mL amiodarone hydrochloride [1]: about 6 mg/mL
Structure (SMILES): CCCCc1oc2ccccc2c1C(=O)c1cc(I)c(OCCN(CC)CC)c(I)c1 [amiodarone hydrochloride]

Structure (SMILES): CCCCc1oc2ccccc2c1C(=O)c1cc(I)c(OCCN(CC)CC)c(I)c1 [amiodarone]
Critical micellar concentration (CMC) ([2]; Ravin et al. 1975): approximately 0.5 mg/mL
Critical micellar concentration (CMC) ([2]; at Krafft point of ~70 °C, Benedini et al. 2010): 1.69 mg/mL
Amiodarone concentration achievable ([3]; 25 °C): 0.35 mg/mL
Amiodarone concentration achievable ([3]; 40 °C): 0.95 mg/mL
Amiodarone concentration achievable ([3]; about 60 °C): > 13 mg/mL
